In patent US11098041B2 (Merck Patent GmbH, priority 2014, dated 2021):

Tests used:
full-length human BTK = full-length human BTK (Homo sapiens (Human), UniProt Q06187); assay: Assay A: microfluidic off-chip mobility shift assay against BTK enzyme; format: biochemical
Description: Assay A: Microfluidic Off-Chip Mobility Shift Assay Protocol for Potency Assessment Against BTK Enzyme
The protocol below describes microfluidic, off-chip mobility shift kinase assay to measure inherent potency of compounds against BTK enzyme.
5 uL of enzyme buffer and 7.5 uL of ATP/kinKDR peptide substrate mix were added to Matrix (#115304) 384-well, sterile, polypropylene plates (Thermo Fisher Scientific, Hudson, N.H.) with 125 nL of serially diluted compounds prepared in 100% DMSO, and incubated for 90 min. at 27° C. Following the incubation period, reactions were stopped by adding 60 uL stop buffer consisting of 100 mM HEPES, pH 7.5, 0.015% Brij-35 (30%), 0.277% Coating Reagent #3 (Caliper Life Sciences, Mountain View, Calif.), 5% DMSO. Stopped reactions were monitored at −2 PSI, −3000 V/−700 V in a LabChip 3000 plate reader from Caliper Life Sciences, a PerkinElmer Company (Hopkinton, Mass.), and the activity was measured by off-chip mobility shift assay measuring the charge/mass difference between substrate and product resulting from peptide phosphorilation. IC50 and efficacy were determined by plotting log [Inhibitor] vs. % Activity in GeneData Screener (Basel. Switzerland).

[1] = molecular target: BTK C481S (His-TEV-hsBTK(328-659)(C481S)) (Homo sapiens (Human), UniProt Q06187, C481S); assay: Assay B: microfluidic off-chip mobility shift assay against BTK C481S enzyme; format: biochemical; conditions: BTK C481S mutant
Description: The mechanics of the assay platform are described by the vendor (PerkinElmer, Hopkinton, Mass.) on their website at the following URL: http://caliperls.com.
5 uL of enzyme buffer and 7.5 uL of ATP/KinKDR peptide substrate mix were added to Matrix (#4315) 384-well, sterile, flat-bottom polypropylene plates (Thermo Fisher Scientific, Hudson, N.H.) with 125 nL of serially diluted compounds prepared in 100% DMSO, and incubated for 90 min. at 25° C. Following the incubation period, reactions were terminated by adding 65 uL quench buffer consisting of 100 mM HEPES, pH 7.5, 0.015% Brij-35 (30%), 0.277% Coating Reagent #3 (PerkinElmer, Mountain View, Calif.), 5% DMSO. Terminated reactions were monitored at −2 PSI, −3000 V/−700 Volts in a LabChip 3000 plate reader from Caliper Life Sciences, a PerkinElmer Company (Hopkinton, Mass.), and the activity was quantified by laser-induced fluorescence measuring the charge/mass difference between substrate and product resulting from peptide phosphorylation. IC50 and efficacy were determined by plotting log [Inhibitor] vs. % Activity in GeneData Screener (Basel, Switzerland).

Sequence of full-length human BTK (Q06187 whole entry): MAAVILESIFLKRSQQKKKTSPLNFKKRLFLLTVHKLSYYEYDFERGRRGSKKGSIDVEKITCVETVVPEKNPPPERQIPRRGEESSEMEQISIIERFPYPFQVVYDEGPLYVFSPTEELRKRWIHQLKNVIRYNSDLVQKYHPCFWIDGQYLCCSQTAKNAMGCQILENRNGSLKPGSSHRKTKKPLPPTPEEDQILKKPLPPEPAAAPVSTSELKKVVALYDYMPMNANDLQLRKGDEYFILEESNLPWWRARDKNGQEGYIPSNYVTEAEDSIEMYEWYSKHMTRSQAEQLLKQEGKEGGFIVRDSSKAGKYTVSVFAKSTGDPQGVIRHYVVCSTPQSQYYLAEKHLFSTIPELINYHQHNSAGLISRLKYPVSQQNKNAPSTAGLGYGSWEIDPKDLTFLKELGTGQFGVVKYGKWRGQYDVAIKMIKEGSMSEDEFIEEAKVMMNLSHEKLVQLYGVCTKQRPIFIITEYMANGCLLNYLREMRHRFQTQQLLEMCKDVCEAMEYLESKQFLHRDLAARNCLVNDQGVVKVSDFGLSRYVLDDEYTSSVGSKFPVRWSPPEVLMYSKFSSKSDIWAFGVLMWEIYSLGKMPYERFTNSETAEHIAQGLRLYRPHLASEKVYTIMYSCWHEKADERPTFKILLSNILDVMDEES
Sequence of BTK C481S (His-TEV-hsBTK(328-659)(C481S)) (Q06187 328-659 C481S): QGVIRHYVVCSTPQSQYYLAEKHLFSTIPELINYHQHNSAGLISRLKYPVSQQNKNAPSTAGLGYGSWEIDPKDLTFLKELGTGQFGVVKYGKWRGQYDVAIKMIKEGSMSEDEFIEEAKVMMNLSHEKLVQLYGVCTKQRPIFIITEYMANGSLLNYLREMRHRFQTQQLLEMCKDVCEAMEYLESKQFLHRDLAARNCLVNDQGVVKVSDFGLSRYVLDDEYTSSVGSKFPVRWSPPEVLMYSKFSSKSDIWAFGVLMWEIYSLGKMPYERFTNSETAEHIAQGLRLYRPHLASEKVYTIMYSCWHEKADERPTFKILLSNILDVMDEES

Row | IC50 (full-length human BTK) | IC50 [1] | Compound
1 | < 100 nM | < 100 nM | Cn1cc(-c2nc3c(-c4ccc(C5CCCN5C(=O)c5ccc(C(C)(C)C)cc5)cc4)ccnc3[nH]2)cn1 (stereo not drawn) [Example 121, (4-tert-Butyl-phenyl)-(2-{4-[2-(1-methyl-1H-pyrazol-4-yl)-3H-imidazo[4,5-b]pyridin-7-yl]-phenyl}-pyrrolidin-1-yl)-methanone]
2 | < 100 nM | < 100 nM | CC(C)(C)c1nnc(C(=O)NCc2ccc(-c3ccnc4[nH]c(-c5cnn(C6CCOCC6)c5)nc34)cc2F)o1 [Example 126, 5-tert-Butyl-[1,3,4]oxadiazole-2-carboxylic acid 2-fluoro-4-{2-[1-(tetrahydro-pyran-4-yl)-1H-pyrazol-4-yl]-3H-imidazo[4,5-b]pyridin-7-yl}-benzylamide]
3 | < 100 nM | < 100 nM | CC(C)(C)c1nc(C(=O)NCc2ccc(-c3ccnc4[nH]c(-c5cnn(CCN6CCOCC6)c5)nc34)cc2F)no1 [Example 119, 5-tert-Butyl-[1,2,4]oxadiazole-3-carboxylic acid 2-fluoro-4-{2-[1-(2-morpholin-4-yl-ethyl)-1H-pyrazol-4-yl]-3H-imidazo[4,5-b]pyridin-7-yl}-benzylamide]
4 | < 100 nM | < 100 nM | CCn1cc(C(=O)NCc2ccc(-c3ccnc4[nH]c(-c5cnn(C)c5)nc34)cc2F)cn1 [Example 20, 1-Ethyl-1H-pyrazole-4-carboxylic acid 2-fluoro-4-[2-(1-methyl-1H-pyrazol-4-yl)-3H-imidazo[4,5-b]pyridin-7-yl]-benzylamide]
5 | < 100 nM | < 100 nM | COc1cccnc1-c1nc2c(-c3ccc(CNC(=O)c4nc(C(C)(C)C)no4)c(F)c3)ccnc2[nH]1 [Example 152, 3-(tert-butyl)-N-(2-fluoro-4-(2-(3-methoxypyridin-2-yl)-3H-imidazo[4,5-b]pyridin-7-yl)benzyl)-1,2,4-oxadiazole-5-carboxamide]
6 | 100 to 1000 nM | 100 to 1000 nM | Cn1cc(-c2nc3c(-c4ccc(CNC(=O)c5csc(C(F)(F)F)n5)c(F)c4)ccnc3[nH]2)cn1 [Example 22, 2-Trifluoromethyl-thiazole-4-carboxylic acid 2-fluoro-4-[2-(1-methyl-1H-pyrazol-4-yl)-3H-imidazo[4,5-b]pyridin-7-yl]-benzylamide]
7 | < 100 nM | < 100 nM | Cn1cc(-c2nc3c(-c4ccc(Cn5ncc6cc(C(C)(C)C)cc(F)c6c5=O)c(F)c4)ccnc3[nH]2)cn1 [Example 99, 6-tert-Butyl-8-fluoro-2-{2-fluoro-4-[2-(1-methyl-1H-pyrazol-4-yl)-3H-imidazo[4,5-b]pyridin-7-yl]-benzyl}-2H-phthalazin-1-one]
8 | 100 to 1000 nM | 100 to 1000 nM | Cn1cc(-c2nc3c(-c4cccc(NC(=O)c5noc(C(C)(C)C)n5)c4CO)ccnc3[nH]2)cn1 [Example 43, 5-tert-Butyl-N-[2-(hydroxymethyl)-3-[2-(1-methyl-1H-pyrazol-4-yl)-3H-imidazo[4,5-b]pyridin-7-yl]phenyl]-1,2,4-oxadiazole-3-carboxamide]
9 | < 100 nM | < 100 nM | CC(C)(C)c1nnc(C(=O)NCc2ccc(-c3ccnc4[nH]c(-c5cnn(C6COC6)c5)nc34)cc2F)s1 [Example 125, 5-tert-Butyl-[1,3,4]thiadiazole-2-carboxylic acid 2-fluoro-4-[2-(1-oxetan-3-yl-1H-pyrazol-4-yl)-3H-imidazo[4,5-b]pyridin-7-yl]-benzylamide]
10 | 100 to 1000 nM | < 100 nM | C[C@@H]1CN(c2ccc(-c3nc4c(-c5cccc(NC(=O)c6noc(C(C)(C)C)n6)c5CO)ccnc4[nH]3)cc2)C[C@H](C)O1 [Example 47, 5-tert-Butyl-N-[3-(2-[4-[(2R,6S)-2,6-dimethylmorpholin-4-yl]phenyl]-3H-imidazo[4,5-b]pyridin-7-yl)-2-(hydroxymethyl)phenyl]-1,2,4-oxadiazole-3-carboxamide]
11 | 1000 to 5000 nM | 100 to 1000 nM | CC(C)(C)c1nc(C(=O)NCc2ccc(-c3ccnc4[nH]c(C5CCNC(=O)C5)nc34)cc2F)no1 (stereo not drawn) [Example 30, 5-tert-Butyl-[1,2,4]oxadiazole-3-carboxylic acid 2-fluoro-4-[2-(2-oxo-piperidin-4-yl)-3H-imidazo[4,5-b]pyridin-7-yl]-benzylamide]
12 | 1000 to 5000 nM | 100 to 1000 nM | CC(C)(C)c1noc(C(=O)NCc2ccc(-c3ccnc4[nH]c(C5CCNC(=O)C5)nc34)cc2F)n1 (stereo not drawn) [Example 31, 3-tert-Butyl-[1,2,4]oxadiazole-5-carboxylic acid 2-fluoro-4-[2-(2-oxo-piperidin-4-yl)-3H-imidazo[4,5-b]pyridin-7-yl]-benzylamide]
13 | < 100 nM | < 100 nM | Cn1cc(-c2nc3c(-c4ccc(CNC(=O)CCC(C)(C)C)c(F)c4)ccnc3[nH]2)cn1 [Example 21, 4,4-Dimethyl-pentanoic acid 2-fluoro-4-[2-(1-methyl-1H-pyrazol-4-yl)-3H-imidazo[4,5-b]pyridin-7-yl]-benzylamide]
14 | 100 to 1000 nM | 1000 to 5000 nM | Cn1cc(-c2nc3c(-c4ccc5c(c4)CN(C(=O)c4nc(C(C)(C)C)no4)C5)ccnc3[nH]2)cn1 [Example 156, (3-tert-Butyl-[1,2,4]oxadiazol-5-yl)-{5-[2-(1-methyl-1H-pyrazol-4-yl)-3H-imidazo[4,5-b]pyridin-7-yl]-1,3-dihydro-isoindol-2-yl}-methanone]
15 | < 100 nM | < 100 nM | 5-tert-Butyl-[1,3,4]oxadiazole-2-carboxylic acid 2-fluoro-4-{2-[1-(2-morpholin-4-yl-ethyl)-1H-pyrazol-4-yl]-3H-imidazo[4,5-b]pyridin-7-yl}-benzylamide [Example 120]
16 | 1000 to 5000 nM | 1000 to 5000 nM | CC(C)(C)c1ccc(C(=O)Nc2cccc(-c3ccnc4[nH]c(-c5ccc(C(=O)N6CCOCC6)cc5)nc34)c2CO)cc1 [Example 46, 4-tert-Butyl-N-[2-(hydroxymethyl)-3-(2-[4-[(morpholin-4-yl)carbonyl]phenyl]-3H-imidazo[4,5-b]pyridin-7-yl)phenyl]benzamide]
17 | < 100 nM | < 100 nM | Cn1cc(-c2nc3c(-c4ccc(CNC(=O)c5cnc(C6CC6)o5)c(F)c4)ccnc3[nH]2)cn1 [Example 18]
18 | 100 to 1000 nM | 100 to 1000 nM | Cn1cc(-c2nc3c(-c4ccc(CN5CCOc6cc(C7CC7)cc(F)c6C5=O)cc4CO)ccnc3[nH]2)cn1 [Example 38, 8-Cyclopropyl-6-fluoro-4-[[3-(hydroxymethyl)0-4-[2-(1-methyl-1H-pyrazol-4-yl)-3H-imidazo[4,5-b]pyridin-7-yl]phenyl]methyl]-2,3,4,5-tetrahydro-1,4-benzoxazepin-5-one]
19 | > 5000 nM | – | Cn1cc(-c2nc3c(-c4ccc(CNCc5cccnc5)c(F)c4)ccnc3[nH]2)cn1 [Example 173, N-(2-fluoro-4-(2-(1-methyl-1H-pyrazol-4-yl)-3H-imidazo[4,5-b]pyridin-7-yl)benzyl)-1-(pyridin-3-yl)methanamine]

Row | Compound | IC50 (full-length human BTK) | IC50 [1]
20 | Cn1cc(-c2nc3c(-c4ccc(CNC(=O)C5CC(OC(C)(C)C)C5)c(F)c4)ccnc3[nH]2)cn1 (stereo not drawn) [Example 60, 3-(tert-Butoxy)-N-([2-fluoro-4-[2-(1-methyl-1H-pyrazol-4-yl)-3H-imidazo[4,5-b]pyridin-7-yl]phenyl]methyl)cyclobutane-1-carboxamide] | 100 to 1000 nM | 100 to 1000 nM
